Numbers after ± are expanded uncertainties.

The conditions of this data set: 101.33 kPa, Liquid, Pycnometric method.

As a reminder, the mass density is the mass of a sample divided by its volume. Take `OCCCOCCCO` [4-oxa-1,7-heptanediol]: the mass density (303.15 K) came out at 1014 ± 1 kg/m3; the mass density (313.15 K) was found to be 1007 ± 1 kg/m3; the mass density (323.15 K) is listed as 999 ± 1 kg/m3; the mass density (333.15 K) is given as 991 ± 1 kg/m3; the mass density (343.15 K) is reported as 984 ± 1 kg/m3.

Turning to `OCCOCCO` [diethylene glycol], the mass density (303.15 K) is 1109 ± 1 kg/m3; the mass density (313.15 K) is on record as 1103 ± 1 kg/m3; the mass density (323.15 K) was determined as 1095 ± 1 kg/m3; the mass density (333.15 K) amounted to 1088 ± 1 kg/m3; the mass density (343.15 K) was 1081 ± 1 kg/m3.

The values are drawn from the NIST ThermoML archive (doi:10.1016/j.jct.2008.12.003).
